Values quoted from earlier work as cited in patent US20100215746A1, “PREVENTION OF CISPLATIN INDUCED DEAFNESS” (THE REGENTS OF THE UNIVERSITY OF MICHIGAN, priority 2002, published 2010).

Experiments:
[1] = system: neuropathic and ototoxic effects of cisplatin; conditions: co-administration with cisplatin
hearing = conditions: human, in vivo

SMILES | effectiveness in ameliorating neuropathic and ototoxic effects of cisplatin [1] | reported incidence of cisplatin-induced hearing loss (hearing)
NCCCNCCSP(=O)(O)O [amifostine] | does not appear to be effective | 
N.N.[Cl][Pt][Cl] [cisplatin] |  | 9-90%
